# Laboratory results published in patent US7253177B2, “Synthesis and antimalarial activity of pyrrolo[3,2-f]quinazoline-1,3-diamine derivatives” (United States of America as Represented by the Secretary of …, priority 2004, dated 2007).
# Where two headings read alike, the source gives them in different places.
# Assays:
# [1] = system: Plasmodium falciparum D-6 clone (CDC Sierra Leone I); experiment: In vitro antimalarial study, [3H]hypoxanthine uptake, D-6 clone; format: cell-based; conditions: for IC50 D-6: P. falciparum D-6 clone; for IC50: Plasmodium falciparum, read-out: IC50 D-6
# Method: (§1) B. Antimalarial Activities: (a). In Vitro Antimalarial Studies. The in vitro assays were conducted by using a modification of the semiautomated microdilution technique of Desjardins et al and Chulay et al.. Four P. falciparum malaria parasite clones, from CDC Indochina III (W-2), CDC Sierra Leone I (D-6), Southeast Asia Isolates (TM91C235) and RCS (Isolates from Brazil) were utilized in susceptibility testing. They were derived by direct visualization and micromanipulation from patient isolates. The W-2 clone is susceptible to mefloquine but resistant to chloroquine, sulfadoxine, pyrimethamine, and quinine, whereas the D-6 clone is naturally resistant to mefloquine but susceptible to chloroquine, sulfadoxine, pyrimethamine and quinine. Test compounds were initially dissolved in DMSO and diluted 400 fold in RPMI 1640 culture medium supplemented with 25 mM Hepes, 32 mM NaHCO3 and 10% Albumax I (Gibco BRL, Grand Island, N.Y.). These solutions were subsequently serially diluted two-fold with a Biomek 1000 (Beckman, Fullerton, Calif.) over 11 different concentrations. The parasites were exposed to serial dilutions of each compound for 48 hrs and incubated at 37° C. with 5% O2, 5% CO2 and 90% N2 prior to the addition of [^3H]hypoxanthine. After a further incubation of 18 hrs, parasite DNA was harvested from each microtiter well using Packard Filtermate 196 Harvester (Meriden, Conn.) onto glass filters. Uptake of [^3H]hypoxanthine was measured with a Packard Topcount Scintillation. Concentration-response data were analyzed by a non-linear regression logistic dose response model and the IC50 values (50% inhibitory concentrations) for each compound were calculated. (Table 3). (b). In Vivo Antimalarial Studies against P. berghei in mice: The in vivo efficacy of the artelinic acid analogs were determined in a modified Thompson test. This test measures the survivability of mice and parasitemia clearance following administration of drug on days 3-5 post infection. In brief, 5×10^6 P. berghei-infected erythrocytes (KBG-173 strain) were inoculated intraperitoneally to female mice that weighed 24-30 g. By day three post-infection, parasitemia ranged from 1.0-3.7%. Each drug, dissolved in 5% sodium bicarbonate, was administered PO twice daily from day 3-5 post-infection. Total doses for each drug ranged from 1.5-384 mg/kg with 8 mice included in each dosage group. The percent suppression of parasitemia in the treated mice compared to the untreated controls was determined for each test compound; the SD-50 (fifty percent suppression dose) and SD-90 were determined from a non-linear regression logistic dose response fit at day 6 parasitemia data. Survival of mice to day 60 post-infection was considered a cure (C). Compounds were considered active (A) when the survival time of the treated mice was greater than twice the control mice, i.e., 12-14 day (Table 4-5). (c). Sporozoite Induced Test Each compound is ground with a mortar & pestle and suspended in 0.5% hydroxyethylcellulose—0.1% Tween 80 for compounds to be administered PO and those given SC are suspended in peanut oil. Each compound is prepared at 3 different dose levels as requested by WRAIR. Compounds are administered either PO or SC to mice once 4 hr before inoculation of sporozoites. Four-week-old male CD-1 mice, purchased from Charles River and weighing 16-17 g, are placed 5 per cage and allowed to acclimate for 4 days before being treated and then inoculated with sporozoites. They are fed food and water ad-lib and maintained at 76° F. with 12 hr light and 12 hr darkness. The cages and water bottles are changed biweekly. The mice are weighed on Days 0, 3 and 6 then biweekly when blood films are taken. Plasmodium yoelii (17×) is used to infect mice that will be used to infect the mosquitoes. Mice are given a single dose of test compound 4 hr before being inoculated intraperitoneally with 2.5×10^5 sporozoites of Plasmodium yoelii on Day 0. […]
# [2] = system: Plasmodium falciparum W-2 clone (CDC Indochina III); experiment: In vitro antimalarial study, [3H]hypoxanthine uptake, W-2 clone; format: cell-based; conditions: for IC50 W-2: P. falciparum W-2 clone; for IC50: Plasmodium falciparum, read-out: IC50 W-2
# Method: as §1
# [3] = system: Plasmodium falciparum RCS (Isolates from Brazil); experiment: In vitro antimalarial study, [3H]hypoxanthine uptake, RCS clone; format: cell-based; conditions: P. falciparum RCS clone; for IC50: Plasmodium falciparum
# Method: as §1
# [4] = system: Plasmodium falciparum TM91C235 (Southeast Asia Isolates); experiment: In vitro antimalarial study, [3H]hypoxanthine uptake, TM91C235 clone; format: cell-based; conditions: for IC50 TM91C235: P. falciparum TM91C235 clone; for IC50: Plasmodium falciparum, read-out: IC50 TM91C235
# Method: as §1
# [5] = system: Plasmodium berghei; experiment: Antimalarial activity against Plasmodium berghei in mice by subcutaneous injection; format: in vivo
# [6] = system: Plasmodium berghei (KBG-173 strain); format: in vivo; conditions: mice, oral
# Method: as §1
# [7] = system: Plasmodium yoelii (17x) sporozoites; experiment: Sporozoite induced test in mice; format: in vivo; conditions: P. yoelii, mice, oral
# Method: as §1, with “mosquitoes. […] Whole body weights” for “mosquitoes. Mice”, “are taken” for “are given a single dose of test compound 4 hr before being inoculated intraperitoneally with 2.5×10^5 sporozoites of Plasmodium yoelii”, “Day 0 and Day 6 then twice a week for 31 days. A blood film is taken on Day 5 and then twice a week for 31 days. Mice loosing >20% of their body weight will be sacrificed.” for “Day 0.”
smiles,measurement,setting,value
CCOC(=O)Nc1nc(N)nc2ccc3c(ccn3Cc3ccccc3C(F)(F)F)c12 [Compound 2a],IC50 D-6,[1],20.709 ng/mL
same,IC50 W-2,[2],>250 ng/mL
same,IC50 RCS,[3],>250 ng/mL
same,IC50 TM91C235,[4],>250 ng/mL
same,# Mice Alive Day 31/Total,[5]; 40 mg/kg/day,5/7
same,# Mice Dead/Day Died,[5]; 40 mg/kg/day,2/17
same,# Mice Alive Day 31/Total,[5]; 20-2.5 mg/kg/day,7/7
same,# Mice Dead/Day Died,[5]; 20-2.5 mg/kg/day,none
same,# Mice Dead/Day Died,[6]; 40-2.5 mg/kg/day,Death in each dose
CCOC(=O)Nc1nc(N(C(=O)OCC)C(=O)OCC)c2c(ccc3c2ccn3Cc2ccccc2C(F)(F)F)n1 [Compound 2c],IC50 D-6,[1],>250 ng/mL
same,IC50 W-2,[2],>250 ng/mL
same,IC50 RCS,[3],>250 ng/mL
same,IC50 TM91C235,[4],>250 ng/mL
same,# Mice Alive Day 30/Total,[6]; 80-1.25 mg/kg/day,5/5
same,# Mice Dead/Day Died,[6]; 80-1.25 mg/kg/day,None
CC(C)(C)OC(=O)N(C(=O)OC(C)(C)C)c1nc(N)nc2ccc3c(ccn3Cc3ccccc3C(F)(F)F)c12 [Compound 2h],IC50 D-6,[1],0.2549 ng/mL
same,IC50 W-2,[2],3.6678 ng/mL
same,IC50 RCS,[3],5.2370 ng/mL
same,IC50 TM91C235,[4],26.366 ng/mL
same,# Mice Alive Day 31/Total,[5]; 40-2.5 mg/kg/day,7/7
same,# Mice Dead/Day Died,[5]; 40-2.5 mg/kg/day,none
same,# Mice Alive Day 30/Total,[6]; 1.25 mg/kg/day,2/5
same,# Mice Alive Day 30/Total,[6]; 80-2.5 mg/kg/day,5/5
same,# Mice Dead/Day Died,[6]; 80-2.5 mg/kg/day,None
CC(C)(C)OC(=O)Nc1nc(N(C(=O)OC(C)(C)C)C(=O)OC(C)(C)C)c2c(ccc3c2ccn3Cc2ccccc2C(F)(F)F)n1 [Compound 2i],IC50 D-6,[1],1.9252 ng/mL
same,IC50 W-2,[2],33.569 ng/mL
same,IC50 RCS,[3],26.380 ng/mL
same,IC50 TM91C235,[4],97.708 ng/mL
same,# Mice Alive Day 31/Total,[5]; 40-2.5 mg/kg/day,7/7
same,# Mice Dead/Day Died,[5]; 40-2.5 mg/kg/day,none
CC(C)(C)OC(=O)N(C(=O)OC(C)(C)C)c1nc(N(C(=O)OC(C)(C)C)C(=O)OC(C)(C)C)c2c(ccc3c2ccn3Cc2ccccc2C(F)(F)F)n1 [Compound 2j],# Mice Alive Day 31/Total,[5]; 2.5 mg/kg/day,2/7
same,# Mice Alive Day 31/Total,[5]; 10 mg/kg/day,6/7
same,# Mice Dead/Day Died,[5]; 10 mg/kg/day,1/24
same,# Mice Alive Day 31/Total,[5]; 20 mg/kg/day,7/7
same,# Mice Dead/Day Died,[5]; 20 mg/kg/day,none
same,# Mice Alive Day 31/Total,[5]; 40 mg/kg/day,5/7
same,# Mice Dead/Day Died,[5]; 40 mg/kg/day,2/19
CC(=O)Nc1nc(N)nc2ccc3c(ccn3Cc3ccccc3C(F)(F)F)c12 [Compound 3a],IC50,[1],0.0097 ng/mL
same,IC50,[2],0.0186 ng/mL
same,IC50,[3],0.0096 ng/mL
same,IC50,[4],0.0206 ng/mL
CC(=O)N(C(C)=O)c1nc(N)nc2ccc3c(ccn3Cc3ccccc3C(F)(F)F)c12 [Compound 3b],IC50,[1],0.0101 ng/mL
same,IC50,[2],0.0183 ng/mL
same,IC50,[3],0.0116 ng/mL
same,IC50,[4],0.0212 ng/mL
CC(=O)Nc1nc(N(C(C)=O)C(C)=O)c2c(ccc3c2ccn3Cc2ccccc2C(F)(F)F)n1 [Compound 3d],# Mice Dead/Day Died,[6]; 10-0.625 mg/kg/day,death in each group
same,# Mice Alive Day 30/Total,[6]; 220-40 mg/kg/day,5/5
same,# Mice Dead/Day Died,[6]; 220-40 mg/kg/day,None
"Nc1nc(N2C(=O)CCC2=O)nc2ccc3c(ccn3Cc3ccccc3C(F)(F)F)c12 [Compound 3f, 1-Amino-3-(1-pyrrolidine-2,5-dione)-7-(2-trifluoromethyl-benzyl)-7H-pyrrolo[3,2-f]quinazoline]",IC50,[1],< 0.488 ng/mL
same,IC50,[2],< 0.488 ng/mL
"O=C1CCC(=O)N1c1nc(N2C(=O)CCC2=O)c2c(ccc3c2ccn3Cc2ccccc2C(F)(F)F)n1 [Compound 3g, 1,3-Bis-(1-pyrrolidine-2,5-dione)-7-(2-trifluoromethyl)benzyl-7H-pyrrolo[3,2-f]quinazoline]",IC50 D-6,[1],0.1284 ng/mL
same,IC50 W-2,[2],0.1284 ng/mL
same,IC50 RCS,[3],0.2571 ng/mL
same,IC50 TM91C235,[4],0.4021 ng/mL
same,# Mice Alive Day 30/Total,[6]; 80 mg/kg/day,2/5
same,# Mice Alive Day 30/Total,[6]; 40-10 mg/kg/day,0/5
same,# Mice Dead/Day Died,[6]; 40-10 mg/kg/day,deaths in each group
"Nc1nc(O)c2c(ccc3c2ccn3Cc2ccccc2C(F)(F)F)n1 [Compound 4, 1-hydroxy-3-amino-7-(2-trifluromethyl)benzyl-7H-pyrrolo [3,2-f]quinazoline]",IC50,[1],7.24 ng/mL
same,IC50,[2],53.9 ng/mL
same,IC50,[4],83.4 ng/mL
same,oral dose range giving 100% cure against P. berghei,[6]; Thompson test,80 to 180 mg/kg
same,# Mice Alive Day 30/Total,[6]; 320 mg/kg/day,1/5
same,# Mice Dead/Day Died,[6]; 40-10 mg/kg/day,deaths in each group
same,# Mice Alive Day 30/Total,[6]; 160-80 mg/kg/day,5/5
same,# Mice Dead/Day Died,[6]; 160-80 mg/kg/day,none
"COc1cc(C)c2c(Oc3cccc(C(F)(F)F)c3)c(OC)cc(NC(C)CCCN)c2n1 (stereo not drawn) [Tefenoquine, reference compound]",Number of Mice Cured,[7]; 1.25 mg/kg,2/5
same,Number of Mice Cured,[7]; 2.5 mg/kg,4/5
same,Number of Mice Cured,[7]; 5 mg/kg,5/5
same,Number of Mice Cured,[7]; 10 mg/kg,5/5
